Experimental data taken from US11752131B2, “Methods and pharmaceutical compositions for the treatment of obesity” (INSERM (Institut National de la Sante et de la Recherche …, priority 2016, dated 2023).

Legend:
HFD-fed mice [1] = experiment: Oral glucose tolerance test (OGTT) with HOMA-IR index in HFD-fed mice; type: in vivo; conditions: after 9 or 20 wks of HFD, normalized to fat mass (FIG. 3), versus Bl6 mice
Protocol: (§1) C57BL/6 Ido-1−/− mice were from the Jackson Laboratory. Seven week-old Bl6 and Idoko male mice were subjected to HFD containing 60% fat during 20 weeks.
The oral glucose tolerance test was performed in mice food deprived for overnight prior to an oral administration of 3 g/kg glucose. Blood was sampled from the tail vein at 0, 5, 15, 30, 60 and 120 min in order to assay glucose concentration (glucometer, France). Plasma insulin concentration was measured using ELISA kit (Crystal Chem Inc., Downers Grove, Ill., USA). HOMA-IR in mice was calculated using the equation (fasting glucose concentration×fasting insulin concentration)/405).
Moreover, the insulin resistance index (HOMA-IR) was lower in Ido KO mice or L1MT-treated mice after 9 or 20 wks of HFD (FIG. 3).

HFD-fed mice [2] = experiment: Insulin tolerance test (ITT) in HFD-fed mice; type: in vivo; conditions: after 9 wks of HFD (FIG. 2A) and 20 wks of FAT diet (FIG. 2B), insulin 0.75 U/kg i.p., adjusted on percentage of fat mass gained
Protocol: as §1
Insulin tolerance tests (ITT) was performed in mice food deprived 5 h prior intraperitoneal injection of insulin (0.75 U/kg). Blood was sampled from the tail vein at 0, 5, 15, 30, 60 and 120 min in order to assay glucose concentration (glucometer, France).
We next examined the effect of Ido deficiency or inhibition on glucose homeostasis in HFD-fed mice. To this end, we performed insulin tolerance tests (ITT) on Bl6, Idoko mice and Ido inhibitor (L-1 methyl tryptophan, L-1MT)-treated mice after 9 wks or 20 wks of HFD.

## Cn1cc(C[C@H](N)C(=O)O)c2ccccc21 [L-1MT, L-1 methyl tryptophan]
HFD-fed mice [1]
  insulin resistance index (HOMA-IR): lower
HFD-fed mice [2]
  insulin sensitivity in insulin tolerance test (ITT) versus Bl6 mice: more insulin sensitive
